Results from PubChem BioAssay (NCI).
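A five-concentration, 48-hour dose response in 96-well plates underlies each endpoint, interpolated linearly between surrounding concentrations. Here, GI50 denotes the concentration required for 50% inhibition of growth. TGI is the concentration that stops growth completely.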

Assays:
Experiment in all cases: DTP human tumour cell line panel, 48 h
NCI-H460 lung = system: NCI-H460 lung
786-0 renal = system: 786-0 renal
M19-MEL melanoma = system: M19-MEL melanoma
COLO 205 colon = system: COLO 205 colon
OVCAR-8 ovarian = system: OVCAR-8 ovarian
UO-31 renal = system: UO-31 renal
NCI-H522 lung = system: NCI-H522 lung
M14 melanoma = system: M14 melanoma
MDA-MB-435 = system: MDA-MB-435

SMILES	TGI (NCI-H460 lung) [µM]	TGI (786-0 renal) [µM]	TGI (M19-MEL melanoma) [µM]	TGI (COLO 205 colon) [µM]	TGI (OVCAR-8 ovarian) [µM]	TGI (UO-31 renal) [µM]	TGI (NCI-H522 lung) [µM]	TGI (M14 melanoma) [µM]	GI50 (NCI-H460 lung) [µM]	GI50 (786-0 renal) [µM]	GI50 (COLO 205 colon) [µM]	GI50 (OVCAR-8 ovarian) [µM]	GI50 (UO-31 renal) [µM]	GI50 (NCI-H522 lung) [µM]	GI50 (M14 melanoma) [µM]	GI50 (MDA-MB-435) [µM]	TGI (MDA-MB-435) [µM]
N=S(=O)(c1ccccc1)c1ccccc1[N+](=O)[O-] (configuration not stated)	> 100	> 100	> 100	> 100	> 100	> 100	> 100	> 100	–	–	–	–	–	–	–	–	–
Cn1c(=O)c(Oc2cccc(F)c2)cc2cnc(NC3CCOCC3)nc21	> 25	> 25	–	> 25	> 25	> 13	> 25	> 25	> 25	> 25	> 25	> 25	> 8.3	> 25	> 25	> 25	> 25
O=Nc1c(-c2cccc([N+](=O)[O-])c2)nc2cnccn12	> 100	37.4	–	66.7	53.8	25.2	33.3	42	–	–	–	–	–	–	–	–	43.1
O=c1[nH]cnc2c1nnn2C1OC(CO)C(O)C1O (configuration not stated)	> 100	> 100	–	9.94	> 100	> 100	14	> 56.2	1.11	2.58	1.44	0.683	2.75	1.48	1.84	3.51	> 100
N#Cc1c2ccccc2c2n1-c1ccccc1OC(c1ccccc1)C2=O (configuration not stated)	18.8	23	–	16.4	15.7	12	4.72	17.4	3.69	4.91	4.67	3.26	3.19	2.06	3.89	2.88	9.19
CSc1ccc(-c2cc(-c3ccc(NC(=O)CCCN4CCCC4)cc3)nc(-c3ccc(NC(=O)CCCN4CCCC4)cc3)c2)cc1	3.28	23.9	–	4.39	13.6	37.8	3.59	17.4	1.81	6.88	2.05	3.3	15.5	1.91	4.23	1.68	3.06
O=[N+]([O-])c1cc(O)c(O)cc1-c1cn2ccsc2n1	> 100	> 100	–	> 100	> 100	> 100	> 100	57.7	46.9	31	75.2	52.5	34.1	33	20	47.3	> 100
Cc1ccccc1S(=O)(=O)N1[C@H](c2ccc(Cl)cc2)C(C(=O)N[C@@H](Cc2ccccc2)C(N)=O)=C[C@@H]1C(C)(C)C	14.2	23.9	–	14.3	25.4	10.7	15.6	17	4.7	9.46	6.8	5.95	4.23	7.92	6.44	6.83	13.7
